The record followed here is patent US12564631B2, “Phytosphingosine derivatives as adjuvants in immune stimulation” (Helmholtz-Zentrum für Infektionsforschung GmbH, priority 2020, dated 2026).

The structures appear in SMILES notation. Entries after “also recorded” stand apart in the source; their conditions may differ.

One assay relates to CD4+ T cells. As to the kind of experiment: CFSE proliferation assay of CD4+ T cells after interaction with Ova/adjuvant-matured bone marrow derived DCs (APC). Format: cell-based, mice. From the text: FIG. 3B: Cell proliferation tracked by CFSE dilution of CD4+ T cells after interaction with matured Antigen Presenting Cells (APC). With every cell division, the CFSE signal strength is approximately halved. The shown cell numbers indicate the ratio of proliferated live CD4+ T cells.
(§1) FIG. 4: Effect after treatment with IPB 0964-1917—Cell proliferation tracked by CFSE loss of T cells after interaction with matured Antigen Presenting Cells (APC). With every cell division, the CFSE signal strength is reduced. The shown cell numbers indicate the ratio of proliferating T and B cells (7 steps are shown). (A) Numbers of CD4+ T cells are shown at different proliferation steps up to 7 days measuring the loss of CFSE. Naïve cells were treated with one of IPB1901-1912 together with DCs activated with Ova prior to the CFSE assay. (B) Numbers of CD4+ T cells are shown at different proliferation steps up to 7 days measuring the loss of CFSE. Naïve cells were treated with one of IPB2033-2044 together with DCs activated with Ova prior to the CFSE assay. (C) Numbers of CD8+ T cells are shown at different proliferation steps up to 7 days measuring the loss of CFSE. Naïve cells were treated with one of IPB1901-1912 together with DCs activated with Ova prior to the CFSE assay. (D) Numbers of CD8+ T cells are shown at different proliferation steps up to 7 days measuring the loss of CFSE. Naïve cells were treated with one of IPB2033-2044 together with DCs activated with Ova prior to the CFSE assay.
(§2) In order to assess the properties of the inventive compounds in antigen-specific T and B cell stimulation, the compounds were administered to cultured bone marrow cells in a CFSE assay.
(§3) Briefly, femurs and Tibiae of female 4-12 weeks old C57Bl6 (or BALB/c for TCR HA) were removed and purified from the surrounding muscle tissue (Kleenex tissues). Intact Bones were left in 70% ethanol for 2-5 min for disinfection. Both ends were cut with scissors and the bone marrow were flushed with PBS using a syringe with a 0.45 mm diameter needle, clusters were disintegrated by vigorous pipetting.
(§4) In order to obtain activated antigen presenting dendritic cells (DCs), bone marrow cells were cultured with GM-CSF. On Day 0, cells were seeded in a concentration of 2×10^6 cells per 100 mm dish (bacteriological petri dishes) in 10 ml RPMI-10 (100 U Pen/100 μg Strept/2 mM Glutamin/50 μm ß-Mercaptoethanol/10% FCS heat-inactivated and filtered 0.22 μm Filter) containing 200 Units GM-CSF. On Day 3 another 10 ml RPMI-10 containing 200 U GM-CSF were added to the plates. On Day 6 half of the culture supernatants (10 ml) were collected, centrifuged and the cell pellet resuspended in 10 ml fresh RPMI-10/200 U GM-CSF and given back into the original plates.
(§5) Subsequently, the DCs were incubated with Ovalbumin (as antigen) alone or co-administered with known adjuvants, such as α-GalCerMPEG, aßGalCerMPEG or TLR2/6 ligand (BPPcysMPEG), or the novel phytosphingosine derivatives of the present invention. The activation of DCs was controlled by FACS analysis of different CD markers, such as CD40, CD54, CD80, CD86, CD83, MHCI and MHCII.
(§6) The effect of the compounds of the present invention was then ascertained via co-incubation of naïve T or B cells, obtained from mice (OTI or OTII mice) with previous exposure to the Ova antigen, with DCs that had been treated with the compounds of the invention.
(§7) Naïve T cells were derived from LN/spleen from OTI or OTII mice. The MagniSort™ Mouse CD4 naïve or CD8 naïve T cell Enrichment Kit is designed for the magnetic separation of CD4 or CD8 naïve T cells by negative selection from mouse spleens or lymph nodes utilizing a biotinylated antibody cocktail and streptavidin-coated magnetic beads. Undesired cells are bound by antibody (Anti-Mouse CD8 or CD4/CD11b CD19/CD24/CD44/CD45R(B220)/CD49b(Integrin α 2)/Ly-6G (Gr-1)/γδ TCR/TER-119) and then magnetic beads that, when placed in a magnetic field, leave CD4 or CD8 naïve T cells untouched and free in solution. […]

The next assay deals with CD8+ T cells. As to the kind of experiment: CFSE proliferation assay of CD8+ T cells after interaction with Ova/adjuvant-matured bone marrow derived DCs (APC). Format: cell-based, mice. Conditions: DCs restimulated with Ovalbumin + 10 μg compound for 24 h; interaction with APC for 5 days; FIG. 3C.
From the text: FIG. 3C: Cell proliferation tracked by CFSE dilution of CD8+ T cells after interaction with matured Antigen Presenting Cells (APC). With every cell division, the CFSE signal strength is approximately halved. The shown cell numbers indicate the ratio of proliferated live CD8+ T cells
as §1, §2, §3, §4, §5, §6, §7

A further assay has as its system Ova-specific IgG. The assay is described as follows: Ova-specific IgG titer (ELISA) in sera of mice immunized with Ovalbumin plus adjuvant. Format: in vivo. Conditions: Ovalbumin 30 μg + adjuvant 15 μg, days 0, 14, 28, sera 14 days after last immunization. The method, then:
FIG. 5: Immunization protocol—Administration (intramuscular route) of Ovalbumin with adjuvants. Ovalbumin (30 μg) was co-administered (intramuscular) without or with different adjuvants, such as IPB 2033-2044, c-di-AMP or aßGalCerMPEG (15 μg), on days 0, 14 and 28.
FIG. 7: Systemic humoral immune responses induced in mice. Shown is the IgG titer as a readout of systemic humoral immune responses induced in mice after three immunizations with Ovalbumin co-administered with different adjuvants via intramuscular route. Ova-specific IgG titers were measured via ELISA in sera 14 days after the last immunization.
FIG. 9: Immunization protocol—Administration (intranasal route) of Ovalbumin with adjuvants. Immunization protocol: Mucosal administration (intranasal (i.n.) route) of Ovalbumin (30 μg) co-administered without or with different adjuvants, such as IPB 2033-2044, c-di-AMP or aßGalCerMPEG (15 μg), on days 0, 14 and 28.
FIG. 11: Systemic humoral immune responses induced in mice. Shown is the IgG titer as a readout of systemic humoral immune responses induced in mice after three immunizations with Ovalbumin co-administered with different adjuvants via intranasal route. Ova-specific IgG titers in sera 14 days after the last immunization.
Groups of mice (3-5 animals) were immunized either intranasal (i.n.) or intramuscular (i.m.) on days 0, 14 and 281 with PBS, or with Ovalbumin (30 μg); the latter were administered alone or with different adjuvants—c-di-AMP, aßGalCerMPEG or IPB 2033 to 2044—made up to a maximal volume of 20 μl (i.n.) or 50 μl (i.m.) in PBS.
Blood samples were collected on days 1, 14, 28 and 42 via retro-bulbar bleeding. Spleens of vaccinated mice were aseptically removed. For the subsequent methods, cell suspensions of spleens (n=5) of each immunized groups were prepared and erythrocytes were lysed. These splenocyte pools of each group were cultured in the presence of different concentrations of Ovalbumin; controls received 5 μg/mL concanavalin A. The incorporation of [^3H] thymidine into the DNA of proliferating cells was determined using a scintillation counter (Wallac 1450, Micro-Trilux).
The Ova-specific antibodies were determined in serum samples by ELISA. Endpoint titers were expressed as reciprocal values of the last dilution, which gave an optical density at 405 nm of two times above the values of the negative controls. For calculation purposes, negative samples were assigned an arbitrary titer of the lowest dilution measured.
As described in the protocols above, groups of mice (3-5 animals) were immunized either intranasal (i.n.) or intramuscular (i.m.) on days 0, 14 and 281 with PBS, or with Ovalbumin (30 μg); the latter were administered alone or with different adjuvants—c-di-AMP, aßGalCerMPEG or IPB 2033 to 2044—is shown in FIG. 5-11, intramuscular.
On the technique in general: An ELISA detects its analyte on a solid surface through an enzyme-linked reagent.

For `CCCCCCCCCCCCCCCCCCCCCCCC(=O)N(CC(=O)NCCC(=O)O)[C@@H](CO[C@H]1OC(CO)[C@H](O)C(O)C1O)[C@H](O)[C@H](O)CCCCCCCCCCCCCC` (some centres unmarked) [IPB 0964], the “capacity to induce antigen specific CD4+ T cell proliferation” value in the assay with CD4+ T cells (DCs restimulated with Ovalbumin + 10 μg compound for 24 h, interaction with APC for 5 days, FIG. 3B) is “high capacity”. Moreover, the “effect to induce antigen specific CD8+ T cell proliferation” value in the assay on CD8+ T cells was “strong effect; also recorded: beneficial effect”.

As to `CCCCCCCCCCCCCCCCCCCCCCCCCC(=O)N(CC(=O)NCCCCCCCCCCCCCCCCCC)[C@@H](CO[C@H]1OC(CO)[C@H](O)C(O)C1O)[C@H](O)[C@H](O)CCCCCCCCCCCCCC` (some centres unmarked) [IPB 2033], the “stimulation of antigen specific IgG production compared to control aßGalCerMPEG+ova” value is reported as “improved stimulation” in the assay with Ova-specific IgG (intramuscular (i.m.), FIG. 7) and “improved stimulation” with Ova-specific IgG (intranasal (i.n.), FIG. 11).

As to `CCCCCCCCCCCCCCCCCCCCCCCCCC(=O)N(CC(=O)NCCOCCOCCOCCOC)[C@@H](CO[C@H]1OC(CO)[C@H](O)[C@H](O)C1O)[C@H](O)[C@H](O)CCCCCCCCCCCCCC` (some centres unmarked) [IPB 2034], the “stimulation of antigen specific IgG production compared to control aßGalCerMPEG+ova” value in the assay on Ova-specific IgG (intramuscular (i.m.), FIG. 7) is “improved stimulation”; in the assay on Ova-specific IgG (intranasal (i.n.), FIG. 11) it was “at least equivalent”.

On to `CCCCCCCCCCCCCCCCCCCCCCCCCC(=O)N(CC(=O)NCCCCCCN)[C@@H](CO[C@H]1OC(CO)[C@H](O)C(O)C1O)[C@H](O)[C@H](O)CCCCCCCCCCCCCC` (some centres unmarked) [IPB 2035], for which the “stimulation of antigen specific IgG production compared to control aßGalCerMPEG+ova” value is “improved stimulation” in the assay with Ova-specific IgG (intramuscular (i.m.), FIG. 7) and “at least equivalent” with Ova-specific IgG (intranasal (i.n.), FIG. 11).

In the case of `CCCCCCCCCCCCCCCCCCCCCCCCCC(=O)N(CC(=O)NCCCc1ccccc1)[C@@H](CO[C@H]1OC(CO)[C@H](O)C(O)C1O)[C@H](O)[C@H](O)CCCCCCCCCCCCCC` (some centres unmarked) [IPB 2037], the “stimulation of antigen specific IgG production compared to control aßGalCerMPEG+ova” value in the assay with Ova-specific IgG (intramuscular (i.m.), FIG. 7) was “improved stimulation”; with Ova-specific IgG (intranasal (i.n.), FIG. 11), “at least equivalent”.

For the molecule `CCCCCCCCCCCCCCCCCCCCCCCCCC(=O)N(CC(=O)NCC(OC)OC)[C@@H](CO[C@H]1OC(CO)[C@H](O)C(O)C1O)[C@H](O)[C@H](O)CCCCCCCCCCCCCC` (some centres unmarked) [IPB 2038], the “stimulating effect of CD4+ T cells versus controls with only antigen Ova” value in the assay with CD4+ T cells (CFSE loss up to 7 days, DCs activated with Ova + 10 μg compound, FIG. 4A/4B) is “stimulating effect of CD4+ T cells beyond controls”. In addition, the “stimulation of antigen specific IgG production compared to control aßGalCerMPEG+ova” value in the assay with Ova-specific IgG (intramuscular (i.m.), FIG. 7) is “at least equivalent”; in the assay with Ova-specific IgG (intranasal (i.n.), FIG. 11), “improved stimulation”.

Turning to `CCCCCCCCCCCCCCCCCCCCCCCC(=O)N(CC(=O)NCCCCCCCCCCCCCCCCCC)[C@@H](CO[C@H]1OC(CO)[C@H](O)C(O)C1O)[C@H](O)[C@H](O)CCCCCCCCCCCCCC` (some centres unmarked) [IPB 2040], the “stimulation of antigen specific IgG production compared to control aßGalCerMPEG+ova” value in the assay with Ova-specific IgG (intramuscular (i.m.), FIG. 7) is given as “improved stimulation”; in the assay on Ova-specific IgG (intranasal (i.n.), FIG. 11), “improved stimulation”.

As for `CCCCCCCCCCCCCCCCCCCCCCCCCC(=O)N(CC(=O)NCCN1C(=O)c2cccc3c(N(C)C)ccc(c23)C1=O)[C@@H](CO[C@H]1OC(CO)[C@H](O)C(O)C1O)[C@H](O)[C@H](O)CCCCCCCCCCCCCC` (some centres unmarked) [IPB 2041], the “stimulation of antigen specific IgG production compared to control aßGalCerMPEG+ova” value in the assay with Ova-specific IgG (intramuscular (i.m.), FIG. 7) is on record as “at least equivalent”; in the assay on Ova-specific IgG (intranasal (i.n.), FIG. 11) it was “improved stimulation”.

Regarding `CCCCCCCCCCCCCCCCCCCCCCCCCC(=O)N(CC(=O)NCc1ccccc1)[C@@H](CO[C@H]1OC(CO)[C@H](O)C(O)C1O)[C@H](O)[C@H](O)CCCCCCCCCCCCCC` (some centres unmarked) [IPB 2042], the “stimulation of antigen specific IgG production compared to control aßGalCerMPEG+ova” value was “improved stimulation” with Ova-specific IgG (intramuscular (i.m.), FIG. 7) and “improved stimulation” in the assay with Ova-specific IgG (intranasal (i.n.), FIG. 11).

Consider `CCCCCCCCCCCCCCCCCCCCCCCCCC(=O)N(CC(=O)NCCC(=O)OC(C)(C)C)[C@@H](CO[C@H]1OC(CO)[C@H](O)C(O)C1O)[C@H](O)[C@H](O)CCCCCCCCCCCCCC` (some centres unmarked) [IPB 2043], for which the “stimulation of antigen specific IgG production compared to control aßGalCerMPEG+ova” value is listed as “improved stimulation” in the assay on Ova-specific IgG (intramuscular (i.m.), FIG. 7) and “improved stimulation” in the assay on Ova-specific IgG (intranasal (i.n.), FIG. 11).

Turning to `CCCCCCCCCCCCCCCCCCCCCCCCCC(=O)N(CC(=O)NCCOCCOCCOCCOCCOC)[C@@H](CO[C@H]1OC(CO)[C@H](O)[C@H](O)C1O)[C@H](O)[C@H](O)CCCCCCCCCCCCCC` (some centres unmarked) [IPB 2044], the “stimulation of antigen specific IgG production compared to control aßGalCerMPEG+ova” value is “at least equivalent” in the assay with Ova-specific IgG (intramuscular (i.m.), FIG. 7) and “at least equivalent” in the assay with Ova-specific IgG (intranasal (i.n.), FIG. 11).
